Active and inactive are the calls of the source. The rule behind the calls is not given here.
System: Vesicular stomatitis virus
Assay: Antiviral activity against VSV pseudoparticles infected in human Huh7.5 cells infected with VSV pseudoparticles expressed in 293T cells with plasmid encoding vesicular stomatitis G protein, envelope and Vpr deficient HIV vector carrying luciferase reporter gene inserted into Nef position assessed as inhibition of pseudoparticle entry at 6.25 to 100 uM after 72 hrs by luciferase reporter gene assay
Assay type: functional, organism-based

Row | Compound | inhibition
1 | CC(=O)[C@@H]1C[C@H](C(=O)O)[C@@]1(C)CC/C=C(\C)C(=O)O | inactive
2 | C/C(=C\CC[C@]1(C)[C@@H](C(=O)O)C[C@H]1[C@](C)(O)C(=O)O)C(=O)O | inactive
